Reference: patent US20120270832A1, “KETONE ACCUMULATION INHIBITOR” (MITSUI SUGAR CO., LTD., priority 2008, published 2012)
Entries after “also recorded” stand apart in the source; their conditions may differ.

Columns and labels:
[1] = into 100 g water at 20° C.; cited from earlier work
[2] = Drinking test: test drink intake after one hour of exercising; format: in vivo, human; settings: for blood free fatty acid levels changes over time: FIG. 4; for blood lactic acid levels changes over time: FIG. 5; for blood total ketone bodies levels changes over time: FIG. 13; for amount of oxidized carbohydrate changes over time / amount of oxidized lipids (fat) changes over time: calculated from VO2 and VCO2 by Frayn's equation; for amount of oxidized carbohydrate changes over time: FIG. 7; for amount of oxidized lipids (fat) changes over time: FIG. 8; for respiratory quotient changes over time: calculated from oxygen intake and carbon dioxide excretion, FIG. 6; for lipid oxidation, overall finding: recognized from FIGS. 4, 5, 7 and 8; for blood glucose levels (blood sugar level) changes over time: male subjects with suspected metabolic syndrome, drink in 500 ml water taken after 1 h exercise at about 50% VO2 max, blood sampled 10-120 min after intake, FIG. 1
Protocol: To male subjects with suspected metabolic syndrome and 85 cm or more of abdominal circumferences who lack in exercise, the following test was conducted. […] The subjects, who had family histories of cardiopathy or type 2 diabetes and/or had dyslipidemia, were eliminated from the test. Palatinose or high-fructose corn syrup was dissolved in 500 ml of water so that its intake per kg of body weight could be 1.0 g of the solid, and sucralose, a high intensity sweetener, was dissolved in 500 ml of water so that its intake per kg of body weight could be 1.33 mg of the solid that gives the degree of sweetness between the high-fructose corn syrup and palatinose solutions, to prepare three kinds of test drinks. For these three kinds of drinks, drinking tests were conducted, respectively and each test was conducted at intervals of ten days or longer. The high-fructose corn syrup is composed of glucose and fructose, the same constituent sugars as sucrose and palatinose, and its calorie per the solid is 4 kcal/g which is the same value as that of sucrose and palatinose.
The method of physical measurement for the subjects was based on ACSM guideline (American College of Sports Medicine, 2001). Respiratory gas was collected and analyzed by a respiratory gas automatic analyzer (Oxycon Alpha, manufactured by Mijnhardt) every 30 seconds during the test. Maximal oxygen uptake (VO2max) was calculated by increasing exercise loading gradually with a bicycle ergometer (818E, manufactured by Monark).
The tests were conducted as a double-blind crossover tests and dietary restriction was imposed on the subjects from two days before the tests. All subjects were instructed to abstain from alcohol, caffeine, green tea and high-intensity exercising 24 hours before the tests. Moreover, they recorded food intake two days before the first tests and repeated the same food intake before the second tests. This is for standardizing of the food intake before the tests and for minimizing the change of glycogen storage. All subjects took the same food as the dinner a day before all tests (725 kcal, 60% of the energy from carbohydrate, 30% from lipid and 10% from protein). After an overnight (10 hours to 12 hours) fast, the tests were conducted. During the fasting period, they were permitted to take water freely.
In order to avoid the effect of circadian rhythm, the tests were started at the same time. After the 15 minutes rest, the first venous blood sampling was conducted. The subjects exercised for an hour with loading of about 50% of VO2 max by a bicycle ergometer. After exercising, blood sampling was conducted and they took the test drinks for 5 minutes. Blood sampling was conducted at time points of 10, 20, 30, 45, 60, 75, 90, 105 and 120 minutes after the test drink was taken in. The collected blood samples were submitted for various biochemical measurements. After the drink intake, their heart rates were continuously measured with an electrocardiograph (Dyan Scope, manufactured by Fukuda Denshi).
On the assumption that oxidation of proteins during exercising can be ignored, oxidation of total carbohydrates and lipids was calculated from VO2 and VCO2 using Frayn's equation. The VO2 and VCO2 represent oxygen intake and carbon dioxide excretion in L/min, respectively. Respiratory quotient (RQ) was calculated from oxygen intake and carbon dioxide excretion. Calorie consumption rate was calculated from RQ and VO2 using Lusk's equation.

| SMILES | solubility into 100 g water [1] [g] | blood free fatty acid levels changes over time ([2]; drink intake after exercising) | blood lactic acid levels changes over time ([2]; drink intake after exercising) | blood 3-OHBA levels changes over time ([2]; drink intake after exercising, FIG. 12) | blood total ketone bodies levels changes over time ([2]; drink intake after exercising) | amount of oxidized carbohydrate changes over time ([2]; drink intake after exercising) | amount of oxidized lipids (fat) changes over time ([2]; drink intake after exercising) | respiratory quotient changes over time ([2]; drink intake after exercising) | lipid oxidation, overall finding ([2]; drink intake after exercising) | blood glucose levels (blood sugar level) changes over time [2] | blood insulin levels changes over time (insulin secretion) ([2]; drink intake after exercising, FIG. 2) | blood neutral fat levels changes over time ([2]; drink intake after exercising, FIG. 9) | blood epinephrine levels changes over time ([2]; drink intake after exercising, FIG. 10) | blood nolepinephrine levels changes over time ([2]; drink intake after exercising, FIG. 11) |
| --- | --- | --- | --- | --- | --- | --- | --- | --- | --- | --- | --- | --- | --- | --- |
| O.OC[C@H]1O[C@H](OC[C@H]2OC(O)(CO)[C@@H](O)[C@@H]2O)[C@H](O)[C@@H](O)[C@@H]1O (stereo partly shown) [Palatinose monohydrate] | 38.4 | – | – | – | – | – | – | – | – | – | – | – | – | – |
| OC[C@H]1O[C@H](O[C@]2(CCl)O[C@H](CCl)[C@@H](O)[C@@H]2O)[C@H](O)[C@@H](O)[C@H]1Cl [sucralose, reference compound] | – | the higher values were maintained | no change | rose | rose | lower values | higher values | ~0.7 | maintained | did not rise | – | – | – | – |
| OC[C@H]1O[C@H](OC[C@H]2OC(O)(CO)[C@@H](O)[C@@H]2O)[C@H](O)[C@@H](O)[C@@H]1O (stereo partly shown) [palatinose, isomaltulose] | – | between those in taking high-fructose corn syrup and in taking sucralose | between those in taking high-fructose corn syrup and in taking sucralose | – | dropped without their accumulation in blood; also recorded: inhibit accumulation of ketone bodies | between those of high-fructose corn syrup and sucralose | between those of high-fructose corn syrup and sucralose | between those in taking high-fructose corn syrup and in taking sucralose | rather difficult to prevent | rose slowly thereafter, surpassed that in the case of taking high-fructose corn syrup around 60 minutes thereafter, and continued maintaining a relatively high value | mild | no effect | no effect | no effect |
